# From ChEMBL document CHEMBL1201861, “Genomics of Drug Sensitity in Cancer screening data, Wellcome Trust Sanger Institute”
# Legend:
# Assay in all cases: cells
# [1] = system: DU-145; type: functional, cell-based, Homo sapiens; conditions: Homo sapiens, DU-145
# Description: SANGER: Inhibition of human DU-145 cell growth in a cell viability assay.
# [2] = system: H-EMC-SS; type: functional, cell-based; conditions: Homo sapiens
# Description: SANGER: Inhibition of human H-EMC-SS cell growth in a cell viability assay.
# [3] = system: HN; type: functional, cell-based, Homo sapiens; conditions: Homo sapiens, HN
# Description: SANGER: Inhibition of human HN cell growth in a cell viability assay.
# [4] = system: HuO9; type: functional, cell-based, Homo sapiens; conditions: Homo sapiens, HuO9;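 note: growth inhibition of HuO9 cells, read out with a cell viability assay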
# Description: SANGER: Inhibition of human HuO9 cell growth in a cell viability assay.
# [5] = system: KNS-81-FD; type: functional, cell-based, Homo sapiens; conditions: Homo sapiens, KNS-81-FD;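 note: growth inhibition of KNS-81-FD cells, read out with a cell viability assay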
# Description: SANGER: Inhibition of human KNS-81-FD cell growth in a cell viability assay.
# [6] = system: LAMA-84; type: functional, cell-based; conditions: Homo sapiens;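 note: growth inhibition of LAMA-84 cells, read out with a cell viability assay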
# Description: SANGER: Inhibition of human LAMA-84 cell growth in a cell viability assay.
# [7] = system: LAN-6; type: functional, cell-based, Homo sapiens; conditions: Homo sapiens, LAN-6;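 note: growth inhibition of LAN-6 cells, determined with a cell viability assay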
# Description: SANGER: Inhibition of human LAN-6 cell growth in a cell viability assay.
# [8] = system: LB996-RCC; type: functional, cell-based; conditions: Homo sapiens
# Description: SANGER: Inhibition of human LB996-RCC cell growth in a cell viability assay.
# [9] = system: MOLT-13; type: functional, cell-based; conditions: Homo sapiens;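 note: IC50 for suppression of MOLT-13 cell growth, read out with a cell viability assay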
# Description: SANGER: Inhibition of human MOLT-13 cell growth in a cell viability assay.
# [10] = system: NB7; type: functional, cell-based; conditions: Homo sapiens;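 note: growth inhibition of NB7 cells, read out with a cell viability assay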
# Description: SANGER: Inhibition of human NB7 cell growth in a cell viability assay.
# [11] = system: NCI-H1092; type: functional, cell-based; conditions: Homo sapiens;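 note: cell growth inhibition measured with a cell viability assay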
# Description: SANGER: Inhibition of human NCI-H1092 cell growth in a cell viability assay.
# [12] = system: NCI-H1304; type: functional, cell-based; conditions: Homo sapiens;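 note: growth inhibition of the cancer cell line, measured in a cell viability assay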
# Description: SANGER: Inhibition of human NCI-H1304 cell growth in a cell viability assay.
# [13] = system: NCI-H1648; type: functional, cell-based, Homo sapiens; conditions: Homo sapiens, NCI-H1648;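 note: cell viability assay measuring inhibition of NCI-H1648 cell growth, from the Sanger screening data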
# Description: SANGER: Inhibition of human NCI-H1648 cell growth in a cell viability assay.
# [14] = system: NCI-H2029; type: functional, cell-based; conditions: Homo sapiens;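 note: Read-out is a viability assay on the cultured cells, and IC50 is the concentration that suppresses cell growth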
# Description: SANGER: Inhibition of human NCI-H2029 cell growth in a cell viability assay.
# [15] = system: NCI-H2405; type: functional, cell-based, Homo sapiens; conditions: Homo sapiens, NCI-H2405;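 note: growth inhibition of the human cell line, read out with a cell viability assay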
# Description: SANGER: Inhibition of human NCI-H2405 cell growth in a cell viability assay.
# [16] = system: NCI-H810; type: functional, cell-based, Homo sapiens; conditions: Homo sapiens, NCI-H810;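 note: IC50 reflects inhibition of cancer cell line growth, read out with a cell viability assay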
# Description: SANGER: Inhibition of human NCI-H810 cell growth in a cell viability assay.
# [17] = system: NCI-H82; type: functional, cell-based; conditions: Homo sapiens;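 note: growth inhibition of NCI-H82 cells, measured with a cell viability readout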
# Description: SANGER: Inhibition of human NCI-H82 cell growth in a cell viability assay.
# [18] = system: NOMO-1; type: functional, cell-based; conditions: Homo sapiens;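 note: growth inhibition of human NOMO-1 cells measured by a cell viability assay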
# Description: SANGER: Inhibition of human NOMO-1 cell growth in a cell viability assay.
# [19] = system: OAW-28; type: functional, cell-based, Homo sapiens; conditions: Homo sapiens, OAW-28;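 note: growth inhibition of OAW-28 cells, read out with a cell viability assay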
# Description: SANGER: Inhibition of human OAW-28 cell growth in a cell viability assay.
# [20] = system: OC-314; type: functional, cell-based; conditions: Homo sapiens
# Description: SANGER: Inhibition of human OC-314 cell growth in a cell viability assay.
# [21] = system: Panc1005; type: functional, cell-based, Homo sapiens; conditions: Homo sapiens, Panc1005;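 note: growth inhibition of human PANC-10-05 cells, measured by a cell viability assay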
# Description: SANGER: Inhibition of human PANC-10-05 cell growth in a cell viability assay.
# [22] = system: SJRH30; type: functional, cell-based; conditions: Homo sapiens;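 note: growth inhibition of human SJRH30 cells, read out with a cell viability assay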
# Description: SANGER: Inhibition of human SJRH30 cell growth in a cell viability assay.
# [23] = system: SW872; type: functional, cell-based, Homo sapiens; conditions: Homo sapiens, SW872;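 note: growth inhibition of SW872 cells, read out by a viability assay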
# Description: SANGER: Inhibition of human SW872 cell growth in a cell viability assay.
# [24] = system: SAOS-2; type: functional, cell-based, Homo sapiens; conditions: Homo sapiens, SAOS-2;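 note: growth inhibition of human Saos-2 cells determined by a cell viability assay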
# Description: SANGER: Inhibition of human Saos-2 cell growth in a cell viability assay.
# [25] = system: 23132-87; type: functional, cell-based, Homo sapiens; conditions: Homo sapiens
# Description: SANGER: Inhibition of human 23132-87 cell growth in a cell viability assay.
# [26] = system: 8505C; type: functional, cell-based, Homo sapiens; conditions: Homo sapiens, 8505C
# Description: SANGER: Inhibition of human 8505C cell growth in a cell viability assay.
# [27] = system: A704; type: functional, cell-based, Homo sapiens; conditions: Homo sapiens, A704;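 note: growth inhibition of human A704 cells, read out with a cell viability assay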
# Description: SANGER: Inhibition of human A704 cell growth in a cell viability assay.
# [28] = system: CAL-33; type: functional, cell-based, Homo sapiens; conditions: Homo sapiens, CAL-33;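 note: growth inhibition of CAL-33 cells, read out with a cell viability assay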
# Description: SANGER: Inhibition of human CAL-33 cell growth in a cell viability assay.
# [29] = system: CAL-62; type: functional, cell-based, Homo sapiens; conditions: Homo sapiens, CAL-62;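 note: growth inhibition of CAL-62 cells, read out with a cell viability assay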
# Description: SANGER: Inhibition of human CAL-62 cell growth in a cell viability assay.
# [30] = system: ZR-75-30; type: functional, cell-based; conditions: Homo sapiens;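 note: growth inhibition of ZR-75-30 cells, measured with a cell viability readout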
# Description: SANGER: Inhibition of human ZR-75-30 cell growth in a cell viability assay.
Compound,IC50 [1] [µM],IC50 [2] [µM],IC50 [3] [µM],IC50 [4] [µM],IC50 [5] [µM],IC50 [6] [µM],IC50 [7] [µM],IC50 [8] [µM],IC50 [9] [µM],IC50 [10] [µM],IC50 [11] [µM],IC50 [12] [µM],IC50 [13] [µM],IC50 [14] [µM],IC50 [15] [µM],IC50 [16] [µM],IC50 [17] [µM],IC50 [18] [µM],IC50 [19] [µM],IC50 [20] [µM],also measured
CC(=O)O[C@@H]1[C@@H](OC(C)=O)[C@@H](O)[C@H](Oc2c(-c3ccc(O)cc3)oc3cc(O)cc(O)c3c2=O)O[C@H]1C,> 10,> 10,> 10,> 10,> 10,> 10,> 10,> 10,> 10,> 10,> 10,> 10,> 10,> 10,> 10,> 10,5.06,> 10,> 10,> 10,IC50 [21]: > 10 µM; IC50 [22]: > 10 µM; IC50 [23]: > 10 µM; IC50 [24]: > 10 µM; IC50 [25]: > 10 µM; IC50 [26]: > 10 µM; IC50 [27]: > 10 µM; IC50 [28]: > 10 µM; IC50 [29]: > 10 µM; IC50 [30]: > 10 µM
C=CCNC1=C2C[C@@H](C)C[C@H](OC)[C@H](O)[C@@H](C)/C=C(\C)[C@H](OC(N)=O)[C@@H](OC)/C=C\C=C(/C)C(=O)NC(=CC1=O)C2=O [TANESPIMYCIN],> 1,> 1,0.0427,0.0759,0.184,> 1,> 1,0.336,> 1,> 1,> 1,> 1,0.152,> 1,0.346,> 1,> 1,> 1,> 1,0.167,IC50 [21]: 0.412 µM; IC50 [22]: > 1 µM; IC50 [23]: 0.608 µM; IC50 [24]: 0.879 µM; IC50 [25]: 0.0695 µM; IC50 [26]: 1 µM; IC50 [27]: > 1 µM; IC50 [28]: > 1 µM; IC50 [29]: 0.162 µM; IC50 [30]: > 1 µM
CCOc1nc(NC(=O)Cc2cc(OC)ccc2OC)cc(N)c1C#N,> 10,> 10,> 10,> 10,> 10,> 10,> 10,> 10,> 10,2.27,> 10,> 10,> 10,> 10,> 10,> 10,> 10,> 10,> 10,> 10,IC50 [21]: > 10 µM; IC50 [22]: > 10 µM; IC50 [23]: > 10 µM; IC50 [24]: > 10 µM; IC50 [25]: > 10 µM; IC50 [26]: > 10 µM; IC50 [27]: > 10 µM; IC50 [28]: > 10 µM; IC50 [29]: > 10 µM; IC50 [30]: > 10 µM
